In patent US6929790B2, “Compositions to control oral microbial oxidation-reduction (Eh) levels” (priority 1996, dated 2005):

Key:
[1] = system: mixed bacteria in salivary sediment; assay: Eh lowering by amino acids or salivary supernatant in the salivary sediment system; conditions: 3 mM amino acid, 16.7% salivary sediment, 60 mM phosphate buffer, 37° C., up to 24 hours; for Lowest Eh reached, Group B: Group B (next lowest Eh); for Lowest Eh reached, Group A: Group A (highest Eh levels)
Text: This model utilizes the mixed oral bacteria collected in the salivary sediment obtained from whole saliva by centrifugation. […] This model is recognized in the art as an effective proxy to study the microbial metabolic and related biochemical processes of the oral cavity.
(§1) To collect salivary sediment and salivary supernatant for the assay, saliva stimulated by chewing paraffin wax was expectorated into test-tubes chilled in cracked ice. […] Following collection, the saliva was centrifuged at 1740×g for 15 minutes and the supernatant was subsequently removed by pipette and kept on ice until the assay was run. Next, the sediment was washed three times with ice cold distilled water to remove any residual salivary supernatant. The washed salivary sediment was chilled in crushed ice until the assay was run. Prior to incubating the samples and running the assay, the washed salivary sediment was re-suspended in distilled water to a final concentration of 50 percent (V/V).
A control tube contained sediment and water.
(§2) The oxidation-reduction potential (Eh) was determined in each incubation mixture using a platinum electrode and a potassium chloride salt bridge leading to a calomel reference electrode connected to a pH meter used as a millivoltmeter.

[2] = system: soft tissues of the oral cavity; conditions: cited from earlier work
mixed oral bacteria = assay: Eh during incubation of salivary sediment and salivary supernatant with zinc chloride and/or hydrogen peroxide (Example II); conditions: zinc chloride 6.0 mM (0.08%), hydrogen peroxide 0.5%, 37° C., 24 hours
Method: as §1, §2
A tube was prepared containing salivary sediment and salivary supernatant only (water control).

[3] = 25° C.; cited from earlier work
oral bacteria [4] = assay: In vivo cysteine rinse challenge, VSC (Halimeter) and tongue Eh before and after test rinse (Examples IV-VII); design: species or system human subjects
Method: The ability of a zinc chloride rinse solution to reduce or prevent the formation of volatile sulfur compounds (VSC) in vivo following successive challenges with a cysteine rinse was studied in this Example. The rinse solution consisted of zinc chloride at 6 mM (0.08%). […] The subject rinsed his/her mouth with 5 ml of a 6 mM cysteine solution for 30 seconds to stimulate substantial VSC production by the oral bacteria. […] Before and following the rinse, a Halimeter instrument was used to measure the volatile sulfur compounds (VSC) produced. Simultaneously, a platinum electrode was placed on the posterior dorsum surface of the tongue, just anterior to the circumvallate papillae to measure the Eh. After 20 minutes, the subject rinsed his/her mouth with 5 ml of the zinc chloride solution for 30 seconds. Again, the VSC of the subject's mouth air and the Eh were measured. The subject then rinsed successively with the 6 mM cysteine solution at 40, 60, 140, 320 and 380 minutes and the VSC and Eh of the subject's oral cavity were re-measured each time (see FIG. 5) using the Halimeter and the platinum electrode.
(§3) As before, 5 ml of the zinc/peroxide/chloride ion composition of this invention was applied as a rinse for 30 seconds.
as §3
The abilities of 0.1% sodium chlorite rinse solutions, one without and one with zinc chloride at 6 mM (0.08%) were compared in this Example for their abilities to reduce or prevent the formation of VSC in vivo following successive challenges with a cysteine rinse as before. The oral rinse consisted of application of 5 ml for 30 seconds of either an 0.1% sodium chlorite solution or an 0.1% sodium chlorite solution to which zinc chloride at 0.08% had been added.

oral bacteria [5] = assay: Zinc ion concentration versus rate of volatile sulfur compound production from cysteine (FIG. 1); type: cell-based; conditions: inhibition is exponential
Text: Inhibition is exponential and occurs maximally once the zinc ion concentration reaches about 0.2%.

For `N=C(N)NCCC[C@H](N)C(=O)O` [arginine], the “Lowest Eh reached, Group B” value [1] was 25 millivolts.
With `N[C@@H](CC(=O)O)C(=O)O` [aspartic] the “Lowest Eh reached, Group A” value [1] was 80 millivolts.
For `N[C@@H](CCC(=O)O)C(=O)O` [glutamic], the “Lowest Eh reached, Group B” value [1] was 30 millivolts.
In the case of `OO` [hydrogen peroxide], the “Hydrogen peroxide concentration above which it can be harmful to the soft tissues of the oral cavity” value [2] is given as 3.0 to 3.5%.
For `NCCCC[C@H](N)C(=O)O` [lysine], the “Lowest Eh reached, Group A” value [1] was 95 millivolts.
In the case of `NCCC[C@H](N)C(=O)O` [ornithine], the “Lowest Eh reached, Group B” value [1] is reported as 55 millivolts.
In the case of `N[C@@H](Cc1ccccc1)C(=O)O` [phenylalanine], the “Lowest Eh reached, Group A” value [1] is reported as 100 millivolts.
In the case of `N[C@@H](Cc1ccc(O)cc1)C(=O)O` [tyrosine], the “Lowest Eh reached, Group B” value [1] is reported as 40 millivolts.
For `[Cl-].[Cl-].[Zn+2]` [zinc chloride], the “Decrease in the Eh during incubation” value (mixed oral bacteria) is listed as “some decrease in the Eh”, the “Eh of the incubation mixture compared to salivary supernatant plus salivary sediment control” value (mixed oral bacteria) is listed as “significantly raised the Eh” and the Solubility [3] is listed as 432 @ 25 °C g/100 cc. For the same compound, the “Time for which the VSC response to subsequent cysteine rinses was retarded” value (oral bacteria [4]; Example IV, zinc chloride 6 mM (0.08%), 5 ml rinse for 30 seconds) was “about 5 hours”, the “VSC response to cysteine rinsing” value (oral bacteria [4]; Example IV, zinc chloride 6 mM (0.08%), 5 ml rinse for 30 seconds, 6 mM cysteine challenges) was “reduced the ability of the oral bacteria to produce the VSC response to cysteine rinsing” and the Eh during rinsing (oral bacteria [4]; Example IV, zinc chloride 6 mM (0.08%), platinum electrode on tongue dorsum) was “raised to a small degree”.
For `[Zn+2]` [zinc ion], the “Zinc ion concentration at which inhibition of volatile sulfur compound production from cysteine is maximal” value (oral bacteria [5]) was “about 0.2%”.
With sodium chlorite the “Inhibition of VSC production” value (oral bacteria [4]; Example VII, 0.1% sodium chlorite solution, 5 ml for 30 seconds) was “no inhibition of VSC production”.
